Like-named read-outs stand apart in the source and are kept apart here.
Key:
[1] = tested on: PSMA+PC3-PIP and PSMA-PC3-flu flank xenografts
Description: Final compounds were purified by HPLC. […] Organs were harvested 1, 4, and 24 h post-injection (n=5 per time point).

[2] = tested on: PSMA+PC3-PIP and PSMA-PC3-flu flank xenografts; experiment: Biodistribution of [125I/211At]2 and 3 with and without co-injection of DCIBzL (Example 6); assay type: in vivo, athymic mice
From the text: Final compounds were purified by HPLC.

[3] = 4-hr, Blocker VK-02-90 5.0 nmole
[4] = 4-hr, Blocker YC-I-27 0.5 nmole
[5] = 4-hr, Blocker YC-I-27 1.0 nmole
[6] = 24-hour, Blocker VK-02-90 0.5 nmole
[7] = 24-hour, Blocker VK-02-90 1.0 nmole
[8] = 24-hour, Blocker VK-02-90 5.0 nmole
[9] = 24-hour, Blocker YC-I-27 0.5 nmole
[10] = 24-hour, Blocker YC-I-27 1.0 nmole
[11] = 24-hour, Blocker YC-I-27 5 nmole

With `O=C([O-])CN1CCN(CC(=O)[O-])CCN(CC(=O)NCCCCC(=O)N(CCCC[C@H](NC(=O)N[C@@H](CCC(=O)O)C(=O)O)C(=O)O)Cc2ccc([125I])cc2)CCN(CC(=O)[O-])CC1.[Lu+3]` [[^125I]VK-02-90-Lu] the “Biodistribution, Spleen” value [1, 3] was 0.15 ± 0.08 % injected dose/g, the “Biodistribution, Stomach” value [1, 3] was 0.1 ± 0.04 % injected dose/g and the “Biodistribution, Blood” value [1, 4] was 0.4 ± 0.06 % injected dose/g. The “Biodistribution, Flu tumor” value [1, 4] was 0.3 ± 0.1 % injected dose/g, the “Biodistribution, Kidneys” value [1, 4] was 0.9 ± 0.1 % injected dose/g and the “Biodistribution, Lacrimal glands” value [1, 4] was 0.2 ± 0.02 % injected dose/g. For the same compound, the “Biodistribution, PIP tumor” value [1, 4] was 24.0 ± 3.2 % injected dose/g, the “Biodistribution, Salivary glands” value [1, 4] was 3.3 ± 0.8 % injected dose/g and the “Biodistribution, Spleen” value [1, 4] was 0.25 ± 0.07 % injected dose/g. For the same compound, the “Biodistribution, Stomach” value [1, 4] was 1.3 ± 0.2 % injected dose/g, the “Biodistribution, Blood” value [1, 5] was 0.4 ± 0.05 % injected dose/g and the “Biodistribution, Flu tumor” value [1, 5] was 0.3 ± 0.1 % injected dose/g. For the same compound, the “Biodistribution, Kidneys” value [1, 5] was 0.6 ± 0.03 % injected dose/g, the “Biodistribution, Lacrimal glands” value [1, 5] was 0.2 ± 0.03 % injected dose/g and the “Biodistribution, PIP tumor” value [1, 5] was 23.8 ± 1.1 % injected dose/g. For the same compound, the “Biodistribution, Salivary glands” value [1, 5] was 3.2 ± 0.7 % injected dose/g, the “Biodistribution, Spleen” value [1, 5] was 0.2 ± 0.04 % injected dose/g and the “Biodistribution, Stomach” value [1, 5] was 1.2 ± 0.2 % injected dose/g. For the same compound, the “Biodistribution, Blood” value ([1]; 4-hr, Blocker YC-I-27 5 nmole) was 0.4 ± 0.1 % injected dose/g, the “Biodistribution, Flu tumor” value ([1]; 4-hr, Blocker YC-I-27 5 nmole) was 0.3 ± 0.1 % injected dose/g and the “Biodistribution, Kidneys” value ([1]; 4-hr, Blocker YC-I-27 5 nmole) was 0.7 ± 0.1 % injected dose/g. For the same compound, the “Biodistribution, Lacrimal glands” value ([1]; 4-hr, Blocker YC-I-27 5 nmole) was 0.5 ± 0.5 % injected dose/g, the “Biodistribution, Salivary glands” value ([1]; 4-hr, Blocker YC-I-27 5 nmole) was 5.0 ± 1.4 % injected dose/g and the “Biodistribution, Spleen” value ([1]; 4-hr, Blocker YC-I-27 5 nmole) was 0.3 ± 0.06 % injected dose/g. The “Biodistribution, Stomach” value ([1]; 4-hr, Blocker YC-I-27 5 nmole) was 1.6 ± 0.4 % injected dose/g, the “Biodistribution, Blood” value ([1]; 24-hour, Blocker None) was 0 % injected dose/g and the “Biodistribution, Flu tumor” value ([1]; 24-hour, Blocker None) was 0.05 ± 0.01 % injected dose/g. The “Biodistribution, Kidneys” value ([1]; 24-hour, Blocker None) was 1.3 ± 0.7 % injected dose/g, the “Biodistribution, Lacrimal glands” value ([1]; 24-hour, Blocker None) was 0.05 ± 0.04 % injected dose/g and the “Biodistribution, PIP tumor” value ([1]; 24-hour, Blocker None) was 18.0 ± 6.0 % injected dose/g. The “Biodistribution, Salivary glands” value ([1]; 24-hour, Blocker None) was 0.2 ± 0.08 % injected dose/g, the “Biodistribution, Spleen” value ([1]; 24-hour, Blocker None) was 0.1 ± 0.05 % injected dose/g and the “Biodistribution, Stomach” value ([1]; 24-hour, Blocker None) was 0.1 ± 0.04 % injected dose/g. For the same compound, the “Biodistribution, Blood” value [1, 6] was 0.1 ± 0.01 % injected dose/g, the “Biodistribution, Flu tumor” value [1, 6] was 0.04 ± 0.01 % injected dose/g and the “Biodistribution, Kidneys” value [1, 6] was 0.5 ± 0.2 % injected dose/g. The “Biodistribution, Lacrimal glands” value [1, 6] was 0.03 ± 0.02 % injected dose/g, the “Biodistribution, PIP tumor” value [1, 6] was 16.3 ± 4.2 % injected dose/g and the “Biodistribution, Salivary glands” value [1, 6] was 0.02 ± 0.01 % injected dose/g. The “Biodistribution, Spleen” value [1, 6] was 0.04 ± 0.01 % injected dose/g, the “Biodistribution, Stomach” value [1, 6] was 0.04 ± 0.04 % injected dose/g and the “Biodistribution, Blood” value [1, 7] was 0 % injected dose/g. For the same compound, the “Biodistribution, Flu tumor” value [1, 7] was 0.03 ± 0.01 % injected dose/g, the “Biodistribution, Kidneys” value [1, 7] was 0.4 ± 0.1 % injected dose/g and the “Biodistribution, Lacrimal glands” value [1, 7] was 0 % injected dose/g. For the same compound, the “Biodistribution, Salivary glands” value [1, 7] was 0 % injected dose/g, the “Biodistribution, Spleen” value [1, 7] was 0 % injected dose/g and the “Biodistribution, Stomach” value [1, 7] was 0.03 ± 0.02 % injected dose/g. For the same compound, the “Biodistribution, Blood” value [1, 8] was 0 % injected dose/g, the “Biodistribution, Flu tumor” value [1, 8] was 0.02 ± 0.01 % injected dose/g and the “Biodistribution, Kidneys” value [1, 8] was 0.2 ± 0.2 % injected dose/g. For the same compound, the “Biodistribution, Lacrimal glands” value [1, 8] was 0.01 ± 0.03 % injected dose/g, the “Biodistribution, Salivary glands” value [1, 8] was 0.01 ± 0.01 % injected dose/g and the “Biodistribution, Spleen” value [1, 8] was 0.01 ± 0.03 % injected dose/g. The “Biodistribution, Stomach” value [1, 8] was 0.04 ± 0.03 % injected dose/g, the “Biodistribution, Blood” value [1, 9] was 0.03 ± 0.03 % injected dose/g and the “Biodistribution, Flu tumor” value [1, 9] was 0.04 ± 0.02 % injected dose/g. The “Biodistribution, Kidneys” value [1, 9] was 0.1 ± 0.05 % injected dose/g, the “Biodistribution, Lacrimal glands” value [1, 9] was 0.03 ± 0.04 % injected dose/g and the “Biodistribution, PIP tumor” value [1, 9] was 13.4 ± 3.8 % injected dose/g. The “Biodistribution, Salivary glands” value [1, 9] was 0.6 ± 0.5 % injected dose/g, the “Biodistribution, Spleen” value [1, 9] was 0.02 ± 0.02 % injected dose/g and the “Biodistribution, Stomach” value [1, 9] was 0.1 ± 0.1 % injected dose/g. The “Biodistribution, Blood” value [1, 10] was 0.02 ± 0.01 % injected dose/g, the “Biodistribution, Flu tumor” value [1, 10] was 0.03 ± 0.01 % injected dose/g and the “Biodistribution, Lacrimal glands” value [1, 10] was 0.02 ± 0.02 % injected dose/g. The “Biodistribution, Salivary glands” value [1, 10] was 0.4 ± 0.2 % injected dose/g, the “Biodistribution, Spleen” value [1, 10] was 0.04 ± 0.02 % injected dose/g and the “Biodistribution, Stomach” value [1, 10] was 0.08 ± 0.03 % injected dose/g. For the same compound, the “Biodistribution, Blood” value [1, 11] was 0.02 ± 0.01 % injected dose/g, the “Biodistribution, Flu tumor” value [1, 11] was 0.03 ± 0.01 % injected dose/g and the “Biodistribution, Kidneys” value [1, 11] was 0.05 ± 0.02 % injected dose/g. The “Biodistribution, Lacrimal glands” value [1, 11] was 0.01 ± 0.02 % injected dose/g, the “Biodistribution, PIP tumor” value [1, 11] was 6.6 ± 3.2 % injected dose/g and the “Biodistribution, Salivary glands” value [1, 11] was 0.4 ± 0.1 % injected dose/g. For the same compound, the “Biodistribution, Spleen” value [1, 11] was 0.01 ± 0.03 % injected dose/g, the “Biodistribution, Stomach” value [1, 11] was 0.07 ± 0.1 % injected dose/g and the “retention of radioactivity, lacrimal glands (LG)” value ([2]; 1h, no co-injection) was 4.1±1.3 % ID/g. For the same compound, the “retention of radioactivity, salivary glands (SG)” value ([2]; 1h, no co-injection) was 1.0±0.3 % ID/g, the “retention of radioactivity, kidneys (K)” value ([2]; 4 h, no co-injection) was 18.2±4.9 % ID/g and the “retention of radioactivity, kidneys (K)” value ([2]; 24 h, no co-injection) was 3.3±1.1 % ID/g. For the same compound, the Stomach uptake ([2]; @ 1 h) was 1.8±0.2 % ID/g, the “retention, K” value ([2]; @1 h, co-injection of DCIBzL) was 4.2±1.3 % ID/g and the “retention, LG” value ([2]; @1 h, co-injection of DCIBzL) was 0.5±0.1 % ID/g. For the same compound, the “retention, SG” value ([2]; @1 h, co-injection of DCIBzL) was 3.2±0.7 % ID/g, the Stomach uptake ([2]; @ 4 h) was 0.8±0.5 % ID/g and the Stomach uptake ([2]; @ 24 h) was 0.1±0.04 % ID/g.

Source: US11813340B2, “PSMA targeted radiohalogenated urea-polyaminocarboxylates for cancer radiotherapy” (The Johns Hopkins University, priority 2018, dated 2023)
